From publication PMC8624998, “Synthesis and Antiproliferative Evaluation of 3-Chloroazetidin-2-ones with Antimitotic Activity: Heterocyclic Bridged Analogues of Combretastatin A-4” (Pharmaceuticals, 2021)
Where two headings read alike, the source gives them in different places.

Tests used:
SK-MEL-5 = experiment: NCI-60 5 dose screen, Melanoma; format: cell-based; settings: Homo sapiens
MDA-MB-231/ATCC = experiment: NCI-60 5 dose screen, Breast Cancer; format: cell-based; settings: Homo sapiens
NCI 60 cell line panel = experiment: NCI 60 cell line screen, full panel; format: cell-based; settings: for GI50: Homo sapiens; for LC50: read-out: LC50 (mean over NCI 60 panel)
Text: (§1) The novel 3-haloazetidinone compounds 10e, 11n and 16d were selected by NCI for further biological evaluation in the NCI 60 cell line screen following an initial Tier 1 profiling screen. […]. these values were in the sub-micromolar range for all the cell lines tested except for the breast cancer cell line T-47D, where the progesterone receptors are not regulated by estradiol. […]. [table]

[1] = NCI 60 cell line screen, full panel; format: cell-based; settings: human
Text: as §1

SF-268 = experiment: NCI-60 5 dose screen, CNS Cancer; format: cell-based; settings: Homo sapiens
HT29 = experiment: NCI-60 5 dose screen, Colon Cancer; format: cell-based; settings: Homo sapiens, HT-29
RXF 393 = experiment: NCI-60 5 dose screen, Renal Cancer; format: cell-based; settings: Homo sapiens
UO-31 = experiment: NCI-60 5 dose screen, Renal Cancer; format: cell-based; settings: Homo sapiens
NCI-H552 = experiment: NCI-60 5 dose screen, NSC Lung Cancer; format: cell-based; settings: Homo sapiens
HS 578T = experiment: NCI-60 5 dose screen, Breast Cancer; format: cell-based; settings: Homo sapiens
MCF-7 = experiment: NCI-60 5 dose screen, Breast Cancer; format: cell-based; settings: Homo sapiens, MCF7
M14 = experiment: NCI-60 5 dose screen, Melanoma; format: cell-based; settings: Homo sapiens
KM12 = experiment: NCI-60 5 dose screen, Colon Cancer; format: cell-based; settings: Homo sapiens
T-47D = experiment: NCI-60 5 dose screen, Breast Cancer; format: cell-based; settings: Homo sapiens, T47D
HOP-62 = experiment: NCI-60 5 dose screen, NSC Lung Cancer; format: cell-based; settings: Homo sapiens
OVCAR-3 = experiment: NCI-60 5 dose screen, Ovarian Cancer; format: cell-based; settings: Homo sapiens
DU-145 = experiment: NCI-60 5 dose screen, Prostate cancer; format: cell-based; settings: Homo sapiens
TK-10 = experiment: NCI-60 5 dose screen, Renal Cancer; format: cell-based; settings: Homo sapiens
BT-549 = experiment: NCI-60 5 dose screen, Breast Cancer; format: cell-based; settings: Homo sapiens
U251 = experiment: NCI-60 5 dose screen, CNS Cancer; format: cell-based; settings: Homo sapiens, U-251
MALME-3M = experiment: NCI-60 5 dose screen, Melanoma; format: cell-based; settings: Homo sapiens
EKVX = experiment: NCI-60 5 dose screen, NSC Lung Cancer; format: cell-based; settings: Homo sapiens
[2] = tested on: purified bovine brain tubulin; experiment: In vitro tubulin polymerisation assay; settings: for Fold-Reduction of Vmax of tubulin polymerisation: 10 µM; for Vmax at 10 µM: 10 µM compound, tubulin 3 mg/mL, vehicle 0.0069
SN12C = experiment: NCI-60 5 dose screen, Renal Cancer; format: cell-based; settings: Homo sapiens
NCI/ADR-RES = experiment: NCI-60 5 dose screen, Ovarian Cancer; format: cell-based; settings: Homo sapiens
SF295 = experiment: NCI-60 5 dose screen, CNS Cancer; format: cell-based; settings: Homo sapiens, SF-295
MCF-7 cells = experiment: Lactate dehydrogenase (LDH) assay for cytotoxicity; format: cell-based; settings: Homo sapiens, MCF7; MCF-7, compound concentration 10 μM, 24 h; read-out: Lactate Dehydrogenase assay: % cell lysis (cell death)
Experimental: The toxicity and selectivity of 10n towards normal cells was investigated in the non-tumourigenic cell line HEK-293T (normal human epithelial embryonic kidney cells). […] The cytotoxic effect of selected 3-chloro-β-lactams 10e, 10f, 10i, 10n and 3,3-dichloro-β-lactams 11e and 11n in MCF-7 cells was initially determined using the lactate dehydrogenase (LDH) assay.
The cytotoxicity of selected compounds was determined using the CytoTox 96 non-radioactive cytotoxicity assay (Promega Corporation, Madison, WI, USA). Briefly, MCF-7 cells were seeded in a 96-well plate (200 μL per well), at a density of 2.5 × 10^4 cells/mL, and incubated for 24 h. The cells were then treated with selected β-lactam compounds as described above for the cell viability assay. […] Supernatant (50 μL) was removed from each well to a 96-well plate. Reconstituted ‘CytoTox 96® Reagent (50 μL) was added to each well and the plate was placed in the dark at 20 °C for 30 min. ‘Stop solution’ (50 μL) was added to each well and the samples were analysed at 490 nm using a Dynatech MR5000 plate reader. The percentage cell death at 10 μM was calculated.

UACC-62 = experiment: NCI-60 5 dose screen, Melanoma; format: cell-based; settings: Homo sapiens
[3] = MDA-MB-231/ATCC, read-out: GI50
[4] = 60 cell, NCI 60 panel mean, read-out: GI50 (mean over NCI 60 panel)
[5] = 60 cell, NCI 60 panel mean, read-out: MID GI50 (full panel mean-graph mid-point)
[6] = NCI 60 cancer cell line panel (mean over the panel), NCI 60 panel mean, read-out: LC50 (mean over NCI 60 panel)
[7] = MCF-7, NCI screen, read-out: GI50 in MCF-7 cells

COc1ccc([C@H]2[C@H](Cl)C(=O)N2c2cc(OC)c(OC)c(OC)c2)cc1 (relative stereo) [Compound 10e trans, Trans-3-chloro-1-(3,4,5-trimethoxyphenyl)-4-(4-methoxyphenyl) azetidin-2-one]
GI50 (SK-MEL-5; read-out: GI50): 31.2 nM
GI50 (MDA-MB-231/ATCC; [3]): 68.6 nM
GI50 (NCI 60 cell line panel; [4]): 74.1 nM
GI50 (NCI 60 cell line panel; [5]): 74.1 nM
LC50 (NCI 60 cell line panel; NCI 60 panel mean, listed as 10e): 91200 nM
LC50 [1, 6]: 81300 nM
LC50 ([1]; NCI 60 cancer cell line panel, individual cell lines, all but one cell line for 10e, all but four cell lines for 11n, read-out: LC50 in individual cell lines): > 100000 nM
GI50 (SF-268; read-out: GI50): 158 nM
GI50 (HT29; HT29, read-out: GI50): 29.2 nM
GI50 (RXF 393; read-out: GI50): 27.1 nM
GI50 (UO-31; read-out: GI50): 64.4 nM
GI50 (NCI-H552; NCI-H552, read-out: GI50): 20.7 nM
GI50 (HS 578T; HS 578T, read-out: GI50): 55.3 nM
GI50 (MCF-7; [7]): 34 nM
GI50 (MCF-7; MCF-7, read-out: GI50): 34.3 nM
GI50 (M14; read-out: GI50): 39.6 nM
GI50 (KM12; read-out: GI50): 39.3 nM
GI50 (T-47D; T-47D, read-out: GI50): 15800 nM
GI50 (HOP-62; read-out: GI50): 53.8 nM
GI50 (OVCAR-3; read-out: GI50): 24.1 nM
GI50 (DU-145; read-out: GI50): 44.6 nM
GI50 (TK-10; read-out: GI50): 92.2 nM
GI50 (BT-549; read-out: GI50): 174 nM
GI50 (U251; U251, read-out: GI50): 37 nM
GI50 (MALME-3M; read-out: GI50): 88.4 nM
GI50 (EKVX; read-out: GI50): 69.4 nM
Fold-Reduction of Vmax of tubulin polymerisation [2]: 1.8 fold
Vmax at 10 µM [2]: 0.0039 mOD/min
GI50 (SN12C; read-out: GI50): 83.7 nM
GI50 (NCI/ADR-RES; read-out: GI50): 35.3 nM
GI50 (SF295; SF295, read-out: GI50): 25.4 nM
cytotoxicity at 10 µM (MCF-7 cells): 5%
GI50 (UACC-62; read-out: GI50): 51.8 nM

COc1ccc(/C=C\c2cc(OC)c(OC)c(OC)c2)cc1O [CA-4, Combretastatin A-4]
GI50 (NCI 60 cell line panel; [4]): 99 nM
TGI (mean over NCI 60 panel) (NCI 60 cell line panel; NCI 60 panel mean): 10300 nM
Vmax at 10 µM [2]: 0.0022 mOD/min
cytotoxicity at 10 µM (MCF-7 cells): 12%

COc1ccc(C2C(Cl)C(=O)N2c2cc(OC)c(OC)c(OC)c2)cc1O (centres unmarked) [Compound 10n, 3-Chloro-4-(3-hydroxy-4-methoxy-phenyl)-1-(3,4,5-trimethoxyphenyl)azetidin-2-one]
cytotoxicity at 10 µM (MCF-7 cells): 17%

COc1ccc(C2N(c3cc(OC)c(OC)c(OC)c3)C(=O)C2(Cl)Cl)cc1O (centres unmarked) [Compound 11n, 3,3-Dichloro-4-(3-hydroxy-4-methoxyphenyl)-1-(3,4,5-trimethoxyphenyl)azetidin-2-one]
GI50 (SK-MEL-5): 22.5 nM
GI50 (MDA-MB-231/ATCC; MDA-MB-231): 31.6 nM
GI50 (NCI 60 cell line panel; 60 cell, read-out: GI50 (mean over NCI 60 panel), NCI 60 panel mean): 53.7 nM
GI50 (NCI 60 cell line panel; 60 cell, read-out: GI50 in individual cell lines, 43 of the cell lines investigated): < 100 nM
GI50 (NCI 60 cell line panel; 60 cell, read-out: GI50 value, CNS cancer cell lines): 19.9 to 51.4 nM
GI50 (NCI 60 cell line panel; 60 cell, read-out: GI50 value, non-small cell lung cancer cell lines): 16.4 to 46.4 nM
GI50 (NCI 60 cell line panel; 60 cell, read-out: GI50 value, prostate cancer cell lines): 35.3 to 35.9 nM
GI50 (NCI 60 cell line panel; 60 cell, read-out: MID GI50 (full panel mean-graph mid-point), NCI 60 panel mean): 53.7 nM
GI50 (NCI 60 cell line panel; read-out: GI50 value, breast cancer cell lines apart from T-47D): 22.6 to 42.8 nM
TGI (mean over NCI 60 panel) (NCI 60 cell line panel; NCI 60 panel mean): 10000 nM
LC50 (NCI 60 cell line panel; NCI 60 panel mean): 83200 nM
LC50 ([1]; NCI 60 panel mean, read-out: LC50 (mean over NCI 60 panel)): 91200 nM
LC50 ([1]; all but one cell line for 10e, all but four cell lines for 11n, read-out: LC50 in individual cell lines): > 100000 nM
GI50 (SF-268): 51.4 nM
GI50 (HT29): 2780 nM
GI50 (RXF 393): 30 nM
GI50 (UO-31): 82.1 nM
GI50 (NCI-H552): 16.4 nM
GI50 (HS 578T; Hs-578T): 42.8 nM
GI50 (MCF-7): 31 nM
GI50 (M14): 31.3 nM
GI50 (KM12): 31.8 nM
GI50 (T-47D): 11600 nM
GI50 (HOP-62): 35 nM
GI50 (OVCAR-3): 24.4 nM
GI50 (DU-145): 35.9 nM
GI50 (TK-10): 126 nM
GI50 (BT-549): 39.7 nM
GI50 (U251): 32.5 nM
GI50 (MALME-3M): 68.5 nM
GI50 (EKVX): 46.4 nM
Fold-Reduction of Vmax of tubulin polymerisation [2]: 1.7 fold
Vmax at 10 µM [2]: 0.0041 mOD/min
GI50 (SN12C): 44.6 nM
GI50 (NCI/ADR-RES): 26.5 nM
GI50 (SF295): 38.7 nM
cytotoxicity at 10 µM (MCF-7 cells): 8%
GI50 (UACC-62): 42.2 nM

CCSc1ccc(C2C(Br)C(=O)N2c2cc(OC)c(OC)c(OC)c2)cc1 (centres unmarked) [Compound 16d, 3-Bromo-4-(4-(ethylthio)phenyl)-1-(3,4,5-trimethoxyphenyl)azetidin-2-one]
GI50 (SK-MEL-5; read-out: GI50): 86.1 nM
GI50 (MDA-MB-231/ATCC; [3]): 488 nM
GI50 (NCI 60 cell line panel; [5]): 407 nM
LC50 (NCI 60 cell line panel; NCI 60 panel mean): 81300 nM
LC50 [1, 6]: 83200 nM
GI50 (SF-268; read-out: GI50): 1180 nM
GI50 (HT29; HT29, read-out: GI50): 351 nM
GI50 (RXF 393; read-out: GI50): 170 nM
GI50 (UO-31; read-out: GI50): 342 nM
GI50 (NCI-H552; NCI-H552, read-out: GI50): 158 nM
GI50 (HS 578T; HS 578T, read-out: GI50): 229 nM
GI50 (MCF-7; [7]): 44 nM
GI50 (MCF-7; MCF-7, read-out: GI50): 44.7 nM
GI50 (M14; read-out: GI50): 128 nM
GI50 (KM12; read-out: GI50): 202 nM
GI50 (T-47D; T-47D, read-out: GI50): 16900 nM
GI50 (HOP-62; read-out: GI50): 336 nM
GI50 (OVCAR-3; read-out: GI50): 109 nM
GI50 (DU-145; read-out: GI50): 349 nM
GI50 (TK-10; read-out: GI50): 14300 nM
GI50 (BT-549; read-out: GI50): 525 nM
GI50 (U251; U251, read-out: GI50): 345 nM
GI50 (MALME-3M; read-out: GI50): 11300 nM
GI50 (EKVX; read-out: GI50): 639 nM
GI50 (SN12C; read-out: GI50): 925 nM
GI50 (NCI/ADR-RES; read-out: GI50): 125 nM
GI50 (SF295; SF295, read-out: GI50): 87 nM
GI50 (UACC-62; read-out: GI50): 97.2 nM
